Legend:
[1] = Plasma pharmacokinetics of PB and metabolites PA and PG; details: PB continuous infusion over 24 hours, 400 mg/kg/d, Overall
[2] = system: DNA methyltransferase (DNMT); experiment: DNA methyltransferase enzyme activity in paired tumor biopsies; assay type: in vivo, human; details: one patient with hepatocellular carcinoma; 5-AC 15 mg/m^2/d for 14 days
DNMT = details: plasma concentration reached only with 5-AC 75 mg/m^2/d; cited from earlier work
advanced solid tumor = details: 5-AC 20 – 25 mg/m^2 daily for 10 days; cited from earlier work
Epstein Barr Virus (EBV) = experiment: EBV viral load in PBMC by real-time PCR; assay type: in vivo, human; details: after 5-AC treatment
[3] = human, in vivo, 400 mg/kg/day
G1/G0 growth arrest = details: cited from earlier work
[4] = system: acetylated histones H3 and H4; experiment: Histone H3 or H4 acetylation in PBMC, summary over patients; assay type: in vivo, human
[5] = Toxicity in patients, graded by NCI CTC version 2.0; assay type: in vivo, human
[6] = intravenous administration for 5 days, refractory solid tumors; cited from earlier work

O=C(O)Cc1ccccc1 [PA, phenylacetic acid]
Tmax ([1]; mean (range)): 25.30 (23.83–27.98) h | AUC[INF] ([1]; mean ± SD): 26680 ± 11236 µM·h | Cl ([1]; mean ± SD): 9.5 ± 7.6 L/h | Cmax ([1]; plasma, mean ± SD): 1400 ± 504 µM

Nc1ncn([C@@H]2O[C@H](CO)[C@@H](O)[C@H]2O)c(=O)n1 [5-AC, 5-azacytidine]
inhibition of DNMT activity [2]: 75% and about 75% | concentration shown in vitro to cause DNMT inhibition (DNMT): 5 µM | duration of stable disease (advanced solid tumor): 4 – 8 months | patients with reduced viral load (Epstein Barr Virus (EBV)): Three

O=C([O-])CCCc1ccccc1.[Na+] [PB, sodium phenylbutyrate]
Vd [3]: 14.0 ± 8.0 L | time to G1/G0 growth arrest (G1/G0 growth arrest): ≤ 96 h | patients with increased acetylation ([4]; PB infused for just 24 hours, Four of 8 patients): 50% | patients with increased acetylation ([4]; dose schedule B, PB infused for 7 days, 3 of 5 patients): 60% | confusion, G 3 (CTC grade 3), patients ([5]; human, in vivo): 1 | patients with neuro-cortical toxicity attributable to PB ([5]; of 27 patients, PB 400 mg/kg/day, intermittent or continuous 7 day infusion): 3 | maximum tolerated dose [6]: 410 mg/kg/day
